Measurements: patent US9718812B2, “Substituted thiazole or oxazole P2X7 receptor antagonists” (Axxam S.P.A., priority 2014, dated 2017)

Legend:
P2X7 receptor (hP2X7) = P2X7 receptor (hP2X7) (Homo sapiens (Human), UniProt Q99572); test: Screen Quest Fluo-8 No Wash Calcium Assay (Bz-ATP-induced Ca2+ influx, FLIPR TETRA); assay type: cell-based; details: HEK-293 cells stably transfected with P2X7 receptor, Fluo-8 calcium, Low Divalent Cation Assay Buffer
Protocol: Extracellular binding of Bz-ATP to P2X7 receptor opens the channel and allows Ca2+ influx into the cells. This Ca2+ entry was measured in HEK-293 cells stably transfected with P2X7 receptor using Screen Quest™ Fluo-8 No Wash Calcium Assay Kit (AAt Bioquest®, cat. 36316). Once inside the cell, the lipophilic blocking groups of Fluo-8 are cleaved by non-specific cell esterases, resulting in a negatively-charged fluorescent dye that stays inside cells. Its fluorescence increases upon binding to calcium. When HEK-293/P2X7 cells are stimulated with Bz-ATP, Ca2+ enters the cells and the fluorescence of Fluo-8 NW increases. The dye has an absorption spectrum compatible with excitation at 488 nm by argon laser sources and its emission wavelength is in the range of 515-575 nm.
HEK-293 cells stably transfected with P2X7 receptor were seeded overnight in growth medium at 10,000 to 20,000 cells/well in 384-well plate. 24 hours later, the medium was removed and the cells were pre-loaded at RT for 1 hour with 20 μL/w of Fluo-8 NW. Then 10 μL/w of test compounds and reference antagonist A438079 at 3×-concentration were injected with the […] and the kinetic response over a period of five minutes was monitored.

P2X7 receptor = P2X7 receptor (Homo sapiens (Human), UniProt Q99572); test: YO-PRO-1 Uptake Assay (large pore form, Bz-ATP stimulated); assay type: cell-based; details: HEK-293 cells stably transfected with P2X7 receptor; Bz-ATP EC80 (30 μM); 5 μM YO-PRO-1
Excerpt: YO-PRO®-1 is a fluorescent DNA-binding dye with a MW of 374 Da (Molecular Probes®, cat. Y3603). This method is based upon the presumed ability of YO-PRO®-1 to enter through the dilated or “large pore form” of P2X7 receptor and to bind to intracellular DNA whereupon it increases many fold its fluorescence intensity. The dye has an absorption spectrum compatible with excitation at 488 nm by argon laser sources and its emission wavelength is in the range of 515-575 nm. The aim of this assay was to validate the interaction of antagonists with P2X7 receptor using an alternative readout to Ca^2+-sensitive fluorescent dyes.
HEK-293 cells stably transfected with P2X7 receptor were seeded overnight in growth medium at 20,000 cells/well in 384-well plate. 24 hours later, the medium was removed, the cells were washed with Low Divalent Cation Assay Buffer (0.3 mM Ca2+ and 0 mM Mg2+) and then pre-loaded with 20 μL/w of 5 μM YO-PRO®-1 dye. […] fluorescence measurement immediately started. Then, 10 μL/w of test compounds and reference antagonist A438079 at 3×-concentration were injected with the […] and the kinetic response over a period of five minutes was monitored. A second injection of 10 μL/w of 3× Bz-ATP EC80 (30 μM) was performed with the […] and the signal of the emitted fluorescence was recorded for additional 60 minutes. All the experiment was carried out with a Low Divalent Cation Assay Buffer (0.3 mM Ca^2+ and 0 mM Mg^2+).
The effect of the test compounds was measured as percent inhibition vs the reference antagonist and IC50 values were calculated accordingly.

Chain of P2X7 receptor (hP2X7) (Q99572 whole entry): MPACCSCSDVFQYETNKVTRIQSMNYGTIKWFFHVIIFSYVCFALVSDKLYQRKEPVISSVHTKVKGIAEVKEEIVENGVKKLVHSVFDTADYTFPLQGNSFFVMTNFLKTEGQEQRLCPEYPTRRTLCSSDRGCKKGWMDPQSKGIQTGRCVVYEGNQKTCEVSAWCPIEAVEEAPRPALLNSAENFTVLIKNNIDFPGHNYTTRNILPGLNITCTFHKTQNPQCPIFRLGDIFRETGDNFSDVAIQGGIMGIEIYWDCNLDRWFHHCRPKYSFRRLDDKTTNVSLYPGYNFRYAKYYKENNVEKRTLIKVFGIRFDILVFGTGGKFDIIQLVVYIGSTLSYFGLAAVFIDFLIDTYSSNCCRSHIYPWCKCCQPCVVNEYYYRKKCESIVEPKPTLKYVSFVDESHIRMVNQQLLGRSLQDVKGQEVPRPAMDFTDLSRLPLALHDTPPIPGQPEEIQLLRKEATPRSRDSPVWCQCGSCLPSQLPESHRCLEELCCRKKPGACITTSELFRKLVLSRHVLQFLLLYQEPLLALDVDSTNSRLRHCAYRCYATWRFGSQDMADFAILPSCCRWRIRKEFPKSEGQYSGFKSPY
Chain of P2X7 receptor (Q99572 whole entry): as above

Row | Compound | IC50 (P2X7 receptor (hP2X7)) [nM] | IC50 (P2X7 receptor) [nM]
1 | Cc1ncsc1C(CNC(=O)c1cccc2ncccc12)N1CCC(F)(F)CC1 (centres unmarked) [Compound 33, N-[2-(4,4-difluoropiperidin-1-yl)-2-(4-methyl-1,3-thiazol-5-yl)ethyl]quinoline-5-carboxamide] | 158 | 176
2 | Cc1cccc(C)c1C(=O)NCC(c1scnc1C)N1CCOCC1 (centres unmarked) [Compound 36, 2,6-dimethyl-N-[2-(4-methyl-1,3-thiazol-5-yl)-2-(morpholin-4-yl)ethyl]benzamide] | 149 | 302
3 | Cc1ncsc1C(CNC(=O)c1cc(-c2ncc(F)cn2)ccc1Cl)N1CCOCC1 (centres unmarked) [Compound 37, 2-chloro-5-(5-fluoropyrimidin-2-yl)-N-[2-(4-methyl-1,3-thiazol-5-yl)-2-(morpholin-4-yl)ethyl]benzamide] | 106 | 90
4 | Cc1ncc(C(CNC(=O)c2c(C)cccc2Cl)N2CCc3ccccc3C2)s1 (centres unmarked) [Compound 41, 2-chloro-6-methyl-N-[2-(2-methyl-1,3-thiazol-5-yl)-2-(1,2,3,4-tetrahydroisoquinolin-2-yl)ethyl]benzamide] | 853 | 996
5 | O=C(NCC(c1cnco1)N1CCOCC1)c1c(F)cccc1Cl (centres unmarked) [Compound 44, 2-chloro-6-fluoro-N-[2-(morpholin-4-yl)-2-(1,3-oxazol-5-yl)ethyl]benzamide] | 677 | 500
6 | O=C(NCC(c1cnco1)N1CCc2ccccc2C1)c1c(F)cccc1Cl (centres unmarked) [Compound 48, 2-chloro-6-fluoro-N-[2-(1,3-oxazol-5-yl)-2-(1,2,3,4-tetrahydroisoquinolin-2-yl)ethyl]benzamide] | 541 | 1070
7 | Cc1cccc(C)c1C(=O)NCC(c1cnco1)N1CCc2ccccc2C1 (centres unmarked) [Compound 49, 2,6-dimethyl-N-[2-(1,3-oxazol-5-yl)-2-(1,2,3,4-tetrahydroisoquinolin-2-yl)ethyl]benzamide] | 104 | 945
8 | COc1cccc(C(=O)NCC(c2ocnc2C)N2CCC(F)(F)CC2)c1OC (centres unmarked) [Compound 50, N-[2-(4,4-difluoropiperidin-1-yl)-2-(4-methyl-1,3-oxazol-5-yl)ethyl]-2,3-dimethoxybenzamide] | 4970 | 2090
9 | Cc1ncoc1C(CNC(=O)c1cc(-c2ncc(F)cn2)ccc1Cl)N1CCOCC1 (centres unmarked) [Compound 54, 2-chloro-5-(5-fluoropyrimidin-2-yl)-N-[2-(4-methyl-1,3-oxazol-5-yl)-2-(morpholin-4-yl)ethyl]benzamide] | 114 | 279
10 | COc1cccc(C(=O)NCC(c2ocnc2C)N2CCc3ccccc3C2)c1OC (centres unmarked) [Compound 56, 2,3-dimethoxy-N-[2-(4-methyl-1,3-oxazol-5-yl)-2-(1,2,3,4-tetrahydroisoquinolin-2-yl)ethyl]benzamide] | 147 | 414
11 | Cc1nc(C)c(C(CNC(=O)c2cc(-c3ncc(F)cn3)ccc2Cl)N2CCC(F)(F)CC2)o1 (centres unmarked) [Compound 58, 2-chloro-N-[2-(4,4-difluoropiperidin-1-yl)-2-(2,4-dimethyl-1,3-oxazol-5-yl)ethyl]-5-(5-fluoropyrimidin-2-yl)benzamide] | 1120 | 2970
12 | Cc1ncc(C(CNC(=O)c2c(F)cccc2Cl)N2CCC(OCc3ccccc3)CC2)s1 (centres unmarked) [Compound 62, N-{2-[4-(benzyloxy)piperidin-1-yl]-2-(2-methyl-1,3-thiazol-5-yl)ethyl}-2-chloro-6-fluorobenzamide] | 576 | 1110
13 | O=C(NCC(c1cnc(C2CC2)s1)N1CCC(F)(F)CC1)c1cc(-c2ncc(F)cn2)ccc1Cl (centres unmarked) [Compound 87] | 179 | 126
14 | Cc1ncsc1C(CNC(=O)c1cc(-c2ncc(F)cn2)ccc1Cl)N1CCOC2(CCC2)C1 (centres unmarked) [Compound 93, 2-chloro-5-(5-fluoropyrimidin-2-yl)-N-[2-(4-methyl-1,3-thiazol-5-yl)-2-{5-oxa-8-azaspiro[3.5]nonan-8-yl}ethyl]benzamide] | 116 | 82
15 | Cc1cccc(Cl)c1C(=O)NCC(c1scnc1C)N1CCOC(c2ccc(F)cc2F)C1 (centres unmarked) [Compound 101, 2-chloro-N-{2-[2-(2,4-difluorophenyl)morpholin-4-yl]-2-(4-methyl-1,3-thiazol-5-yl)ethyl}-6-methylbenzamide] | 114 | 42
16 | O=C(NCC(c1cnc(C2CCC2)s1)N1CCC(F)(F)CC1)c1cccc2ncccc12 (centres unmarked) [Compound 105, N-[2-(2-cyclobutyl-1,3-thiazol-5-yl)-2-(4,4-difluoropiperidin-1-yl)ethyl]quinoline-5-carboxamide] | 292 | 135

Further compounds by falling IC50 (P2X7 receptor (hP2X7)), results first:

Row | IC50 (P2X7 receptor (hP2X7)) [nM] | IC50 (P2X7 receptor) [nM] | Compound
17 | 101 | 71 | Cc1ncoc1C(CNC(=O)c1cc(-c2ncc(F)cn2)ccc1Cl)N1CCC(F)(F)CC1 (centres unmarked) [Compound 51, 2-chloro-N-[2-(4,4-difluoropiperidin-1-yl)-2-(4-methyl-1,3-oxazol-5-yl)ethyl]-5-(5-fluoropyrimidin-2-yl)benzamide]
18 | 87 | 49 | Cc1ncc(C(CNC(=O)c2c(F)cccc2Cl)N2CCC(F)(F)CC2)s1 (centres unmarked) [Compound 38, 2-chloro-N-[2-(4,4-difluoropiperidin-1-yl)-2-(2-methyl-1,3-thiazol-5-yl)ethyl]-6-fluorobenzamide]
19 | 72 | 53 | Cc1ncsc1C(CNC(=O)c1c(F)cccc1Cl)N1CCOC(c2ccc(F)cc2F)C1 (centres unmarked) [Compound 91, 2-chloro-N-{2-[2-(2,4-difluorophenyl)morpholin-4-yl]-2-(4-methyl-1,3-thiazol-5-yl)ethyl}-6-fluorobenzamide]
20 | 69 | 158 | O=C(NCC(c1cnco1)N1CCC(OCc2ccccc2)CC1)c1c(F)cccc1Cl (centres unmarked) [Compound 63, N-{2-[4-(benzyloxy)piperidin-1-yl]-2-(1,3-oxazol-5-yl)ethyl}-2-chloro-6-fluorobenzamide]
21 | 68 | 72 | Cc1cccc(Cl)c1C(=O)NCC(c1scnc1C)N1CCOC(c2ccc(F)cc2F)C1 (centres unmarked) [Compound 100, 2-chloro-N-{2-[2-(2,4-difluorophenyl)morpholin-4-yl]-2-(4-methyl-1,3-thiazol-5-yl)ethyl}-6-methylbenzamide]
22 | 62 | 48 | CCc1ncc(C(CNC(=O)c2c(F)cccc2Cl)N2CCC(F)(F)CC2)s1 (centres unmarked) [Compound 85, 2-chloro-N-[2-(4,4-difluoropiperidin-1-yl)-2-(2-ethyl-1,3-thiazol-5-yl)ethyl]-6-fluorobenzamide]
23 | 55 | 44 | Cc1cccc(C)c1C(=O)NCC(c1scnc1C)N1CCC(F)(F)CC1 (centres unmarked) [Compound 32, N-[2-(4,4-difluoropiperidin-1-yl)-2-(4-methyl-1,3-thiazol-5-yl)ethyl]-2,6-dimethylbenzamide]
24 | 54 | 82 | O=C(NCC(c1scnc1C(F)F)N1CCC(F)(F)CC1)c1c(F)cccc1Cl (centres unmarked) [Compound 95, 2-chloro-N-{2-[4-(difluoromethyl)-1,3-thiazol-5-yl]-2-(4,4-difluoropiperidin-1-yl)ethyl}-6-fluorobenzamide]
25 | 38 | 16 | O=C(NCC(c1cnc(C(F)(F)F)s1)N1CCC(F)(F)CC1)c1c(F)cccc1Cl (centres unmarked) [Compound 81, 2-chloro-N-[2-(4,4-difluoropiperidin-1-yl)-2-[2-(trifluoromethyl)-1,3-thiazol-5-yl]ethyl]-6-fluorobenzamide]
26 | 32 | 79 | Cc1ncsc1C(CNC(=O)c1cccc2ncccc12)N1CCOC(c2ccc(F)cc2F)C1 (centres unmarked) [Compound 99, N-{2-[2-(2,4-difluorophenyl)morpholin-4-yl]-2-(4-methyl-1,3-thiazol-5-yl)ethyl}quinoline-5-carboxamide]
27 | 30 | 18 | Cc1ncc(C(CNC(=O)c2c(C)cccc2C)N2CCC(F)(F)CC2)s1 (centres unmarked) [Compound 40, N-[2-(4,4-difluoropiperidin-1-yl)-2-(2-methyl-1,3-thiazol-5-yl)ethyl]-2,6-dimethylbenzamide]
28 | 18 | 55 | Cc1cccc(C)c1C(=O)NCC(c1cnco1)N1CCC(F)(F)CC1 (centres unmarked) [Compound 46, N-[2-(4,4-difluoropiperidin-1-yl)-2-(1,3-oxazol-5-yl)ethyl]-2,6-dimethylbenzamide]
